Data taken from the supplement of paper PMC4862054.

Assays:
Conditions in all cases: incubation time: 72 h
HCC1599 = test: drug sensitivity score (DSS), CellTiter-Blue viability (DSS (AUC-based score)); higher = stronger viability inhibition; extreme values may be limits of the assay
Experimental: (§1)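 DSRT with the CellTiter-Blue (resazurin reduction) viability readout, fluorescence 560/590 nm, 72 h incubation. Plates were normalised to DMSO and benzethonium chloride controls. DSS is computed from the area under the fitted dose-response curve (5 or 9 concentrations).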

HDQ-P1 = test: as above
Experimental: as §1

HCC1937 [1] = test: as above
Experimental: as §1

Hs578T = test: as above
Experimental: as §1

DU-4475 = test: as above
Experimental: as §1

MFM-223 [2] = test: as above
Experimental: as §1

MDA-MB-231 [3] = test: as above
Experimental: as §1

CAL-120 [4] = test: as above
Experimental: as §1

MDA-MB-453 = test: as above
Experimental: as §1

BT-549 [5] = test: as above
Experimental: as §1

SK-BR-3 = test: as above
Experimental: as §1

HCC1143 [6] = test: as above
Experimental: as §1

MDA-MB-436 [7] = test: as above
Experimental: as §1

CAL-85-1 = test: as above
Experimental: as §1

CAL-51 = test: as above
Experimental: as §1

BT-474 [8] = test: as above
Experimental: as §1

HCC1937 [9] = test: drug sensitivity score (DSS), CellTiter-Glo (DSS (AUC-based score)); higher = stronger drug effect (viability inhibition or cytotoxicity); extreme values may be limits of the assay
Procedure, shortened: (§2)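 Breast cancer cell lines (20 µl suspension) were seeded into 384-well plates holding compound at 5 concentrations in 10-fold steps over a compound-specific 10,000-fold range, then incubated 72 h. CellTox Green fluorescence (485/520 nm) was read first, then CellTiter-Glo luminescence after 10 min at room temperature. Each plate was normalised to 0.1 % DMSO and a positive kill control. The drug sensitivity score was calculated from the area under the fitted dose-response curve.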

MDA-MB-468 = test: as above
Procedure, shortened: as §2

MFM-223 [10] = test: as above
Procedure, shortened: as §2

MDA-MB-231 [11] = test: as above
Procedure, shortened: as §2

CAL-120 [12] = test: as above
Procedure, shortened: as §2

BT-549 [13] = test: as above
Procedure, shortened: as §2

CAL-148 = test: as above
Procedure, shortened: as §2

HCC1143 [14] = test: as above
Procedure, shortened: as §2

MDA-MB-436 [15] = test: as above
Procedure, shortened: as §2

BT-474 [16] = test: as above
Procedure, shortened: as §2

Row | Structure (SMILES) | drug sensitivity score (HCC1599) | drug sensitivity score (HDQ-P1) | drug sensitivity score (HCC1937 [1]) | drug sensitivity score (Hs578T) | drug sensitivity score (DU-4475) | drug sensitivity score (MFM-223 [2]) | drug sensitivity score (MDA-MB-231 [3]) | drug sensitivity score (CAL-120 [4]) | drug sensitivity score (MDA-MB-453) | drug sensitivity score (BT-549 [5]) | drug sensitivity score (SK-BR-3) | drug sensitivity score (HCC1143 [6]) | drug sensitivity score (MDA-MB-436 [7]) | drug sensitivity score (CAL-85-1) | drug sensitivity score (CAL-51) | drug sensitivity score (BT-474 [8]) | drug sensitivity score (HCC1937 [9]) | drug sensitivity score (MDA-MB-468) | drug sensitivity score (MFM-223 [10]) | drug sensitivity score (MDA-MB-231 [11]) | drug sensitivity score (CAL-120 [12]) | drug sensitivity score (BT-549 [13]) | drug sensitivity score (CAL-148) | drug sensitivity score (HCC1143 [14]) | drug sensitivity score (MDA-MB-436 [15]) | drug sensitivity score (BT-474 [16])
1 | O=C(O)C(=O)O.[NH-][C@@H]1CCCC[C@H]1[NH-].[Pt+2] [Oxaliplatin] | 2.34 | 0 | 3.82 | 0 | 1.32 | 0 | 0 | 0 | 1.94 | 4 | 0.975 | 1.68 | 2.6 | 0 | 1.13 | 0 | 0 | 0 | 0 | 0 | 0 | 0 | 0 | 0 | 0 | 0
2 | Nc1nc2[nH]cc(CCc3ccc(C(=O)N[C@@H](CCC(=O)O)C(=O)O)cc3)c2c(=O)[nH]1 [Pemetrexed] | 0 | 0 | 0 | 0 | 0 | 0 | 0 | 1.61 | 0 | 0 | 9.22 | 3.58 | 0 | 5.19 | 0 | 0 | 8.27 | 1.37 | 0 | 6.23 | 1.52 | 0 | 0 | 0 | 5.36 | 9.78
3 | COc1cc([C@@H]2c3cc4c(cc3[C@@H](O[C@@H]3O[C@@H]5CO[C@@H](c6cccs6)O[C@H]5[C@H](O)[C@H]3O)[C@H]3COC(=O)[C@H]23)OCO4)cc(OC)c1O [Teniposide] | 8.13 | 4.07 | 19.7 | 4.64 | 28 | 7.43 | 7.47 | 11.2 | 6.23 | 9.11 | 21.4 | 11.7 | 10.3 | 8.14 | 22.2 | 1.44 | 6.71 | 13.5 | 7.72 | 8.09 | 6.56 | 16.1 | 15.7 | 12 | 16.8 | 11.7
4 | COc1cc2nccc(Oc3ccc(NC(=O)Nc4cc(C)on4)c(Cl)c3)c2cc1OC [Tivozanib] | 0.494 | 5.92 | 0 | 2.98 | 0 | 10.4 | 3.77 | 2.1 | 5.3 | 2.11 | 1.12 | 0 | 0 | 0 | 2.51 | 2.36 | 1.42 | 0 | 7.56 | 2.77 | 0 | 0 | 0 | 0 | 0 | 0
